Patent US20110318281A1, “Lactobacillus Salivarius SG-M6 for Improving Oral Bacterial Groups and Health Care Compositions Thereof” (SYNGEN BIOTECH CO., LTD., priority 2010, published 2011)

What was measured:
[1] = system: artificially induced periodontal disease (ligature wire, Streptococcus mutans); experiment: Evaluation of preventive effect for animal periodontal disease; assay type: in vivo, Balb/c mice; conditions: prevention groups; for periodontal pocket improvement percentage (percentage of improving individual): Mann-Whitney test vs pMT
Procedure: (§1) This trial included treatment groups and control groups. The treatment groups of Lactobacillus salivarius SG-M6 were divided into 6 groups as follows: 6 groups of dialyzed fermentation product concentrate of Lactobacillus salivarius SG-M6 included 15-fold, 10-fold, 5-fold, 4-fold, 2-fold, and 1-fold (unconcentrated fermentation broth). Two control groups included the treatment of 0.267 mg/mL of tetracycline and distilled water.
Twelve of 8-week-old female Balb/c mice were selected for each group (Table 2). The mice were administered with various concentrations of Lactobacillus salivarius SG-M6 fermentation product, 1 mL of 0.267 mg/mL tetracyccline or distilled water. […] Their pathological symptoms observed and recorded until sacrificing all animals. Until the control group (feeding with distilled water, mock-treated group) showing gum swelling and dental plaque appearance diagnosed by chief dentists, the ligature wire was removed and inoculation of dental pathogen was stopped. At day 4, 8, 12, and 16 after wire removal, mice periodontal pocket depth was examined, 3 mice from each group were killed for blood sampling, and samples were collected for histological analysis.
(§2) Control group was used as a standard to examine individuals in each group by Mann-Whitney test. Subjects with significant difference were defined as improving individuals. (number of improving Subject/number of total subject in group)×100%=improvement percentage of periodontal pocket depth.
(§3) Experimental data were shown as mean±S.D. The statistical variation of treatment group and control group of mice periodontal pocket were performed by One-Way ANOVA and Dunnett multiple post hoc comparison in longitudinal study, and by One-Way ANOVA and LSD multiple post hoc comparison in cross-sectional study. Besides, Mann-Whitney test was used for examining the number of periodontal pocket improving individuals. The p value of statistical significance level was 0.05.

[2] = system: artificially induced periodontal disease (ligature wire, Streptococcus mutans); experiment: Evaluation of therapeutic effect for animal periodontal disease; assay type: in vivo, Balb/c mice; conditions: treatment groups; for periodontal pocket improvement percentage (percentage of improving individual): Mann-Whitney test vs tMT
Procedure: as §1
Twelve of 8-week-old female Balb/c mice were selected for each group (Table 3). […] After diagnosis of diseased tissue by chief dentists, they were administered with different concentrations of Lactobacillus salivarius SG-M6 fermentation product, live Lactobacillus salivarius SG-M6, 1 mL of 0.267 mg/mL tetracycline or distilled water every day. The pathological symptoms were recorded. Wire was removed at the beginning of the treatment and periodontal pathogen inoculation was terminated. At day 4, 8, 12, and 16 after wire removal, mice periodontal pocket depth was examined. 3 mice from each group were killed for blood sampling and samples were collected for histological analysis.
as §2, §3

[3] = system: Streptococcus mutans (ATCC 25175); experiment: Disc agar diffusion test; assay type: cell-based; conditions: 6 mm paper disc, 37, 24 hours, mean±S.D. (n=3)
Procedure: (§4) Lactobacillus salivarius SG-M6 were cultured in liquid medium. MRS medium was used in this embodiment. The bacteria were cultured at 30-37 for 15-24 hours. The fermentation broth was concentrated into 30-fold of original concentration, dialyzed by Spectra/Por®Dialysis Membrane (MWCO:3500, Spectrum Laboratories Inc, CA) for 48 hours, and diluted into various concentrations according to experimental requirements. […] Above four pathogens strains were purchased from Bioresource Collection and Research Center of Food Industry Research and Development Institute in Taiwan or ATCC. […] The diameter of sterile paper disc was 6 mm. The positive bacterial inhibition effect was determined by bacterial inhibition zone over 6 mm in diameter. Otherwise, it was defined as negative bacterial inhibition effect. Cultural condition was under the temperature of 37 for 24 hours. […] The inhibition zone values were shown as mean±S.D. (n=3).

[4] = system: Porphyromonas gingivalis (ATCC 33277); experiment: Disc agar diffusion test; assay type: cell-based; conditions: 6 mm paper disc, 37, 24 hours, mean±S.D. (n=3)
Procedure: as §4

[5] = system: Streptococcus sanguis (ATCC 49295); experiment: Disc agar diffusion test; assay type: cell-based; conditions: 6 mm paper disc, 37, 24 hours, mean±S.D. (n=3)
Procedure: as §4

[6] = system: Actinomyces viscosus (ATCC 15987); experiment: Disc agar diffusion test; assay type: cell-based; conditions: 6 mm paper disc, 37, 24 hours, mean±S.D. (n=3)
Procedure: as §4

With `CN(C)[C@@H]1C(O)=C(C(N)=O)C(=O)[C@@]2(O)C(O)=C3C(=O)c4c(O)cccc4[C@@](C)(O)[C@H]3C[C@@H]12` [Tetracycline, tetracycline] the “periodontal pocket improvement percentage (percentage of improving individual)” value ([1]; Day 4) was 62%, the periodontal pocket depth ([1]; Day 4, Table 11, comparison with day 4) was 0.84 ± 0.50 mm and the periodontal pocket depth ([1]; Day 4 after wire removal, compared with pMT) was 0.84 ± 0.50 mm. The “periodontal pocket improvement percentage (percentage of improving individual)” value ([1]; Day 8) was 50%, the periodontal pocket depth ([1]; Day 8, Table 11, comparison with day 4) was 0.70 ± 0.34 mm and the periodontal pocket depth ([1]; Day 8, compared with pMT) was 0.70 ± 0.34 mm. The “periodontal pocket improvement percentage (percentage of improving individual)” value ([1]; Day 12) was 71%, the periodontal pocket depth ([1]; Day 12, Table 11, comparison with day 4) was 0.65 ± 0.26 mm and the periodontal pocket depth ([1]; Day 12, compared with pMT) was 0.56 ± 0.26 mm. For the same compound, the “periodontal pocket improvement percentage (percentage of improving individual)” value ([1]; Day 16) was 100%, the periodontal pocket depth ([1]; Day 16, Table 11, comparison with day 4) was 0.49 ± 0.25 mm and the periodontal pocket depth ([1]; Day 16, compared with pMT) was 0.49 ± 0.25 mm. For the same compound, the “periodontal pocket improvement percentage (percentage of improving individual)” value ([2]; Day 4) was 30%, the periodontal pocket depth ([2]; Day 4, Table 13, comparison with day 4) was 1.05 ± 0.64 mm and the periodontal pocket depth ([2]; Day 4, compared with tMT) was 1.05 ± 0.64 mm. The “periodontal pocket improvement percentage (percentage of improving individual)” value ([2]; Day 8) was 20%, the periodontal pocket depth ([2]; Day 8, Table 13, comparison with day 4) was 0.89 ± 0.44 mm and the periodontal pocket depth ([2]; Day 8, compared with tMT) was 0.89 ± 0.44 mm. The “periodontal pocket improvement percentage (percentage of improving individual)” value ([2]; Day 12) was 47%, the periodontal pocket depth ([2]; Day 12, Table 13, comparison with day 4) was 0.63 ± 0.37 mm and the periodontal pocket depth ([2]; Day 12, compared with tMT) was 0.63 ± 0.37 mm. For the same compound, the “periodontal pocket improvement percentage (percentage of improving individual)” value ([2]; Day 16) was 33%, the periodontal pocket depth ([2]; Day 16, Table 13, comparison with day 4) was 0.61 ± 0.34 mm and the periodontal pocket depth ([2]; Day 16, compared with tMT) was 0.48 ± 0.33 mm. The inhibition zone [3] was 29.7 ± 2.0^ mm, the inhibition zone [4] was 33.4 ± 2.2^ mm and the inhibition zone [5] was 25.9 ± 1.2^ mm. For the same compound, the inhibition zone [6] was 48.2 ± 2.4^ mm.
